Assay results reported in ChEMBL document CHEMBL5550106, “Recent advances in the exploration of oxazolidinone scaffolds from compound development to antibacterial agents and other bioactivities” (Eur J Med Chem, 2024).
Values after ≈ are worked out from the molar mass of the structure shown.

Experiments:
Escherichia coli [1] = assay: Antibacterial activity against Escherichia coli MG1655 in presence of polymyxin B nonapeptide; assay type: functional
Escherichia coli [2] = assay: Antibacterial activity against efflux pump-efficient Escherichia coli MG1655 assessed as bacterial growth inhibition; assay type: functional
Escherichia coli [3] = assay: Antimicrobial activity against wild type Escherichia coli MG1655 assessed as inhibition of microbial growth; assay type: functional
Staphylococcus aureus [4] = assay: Antibacterial activity against Staphylococcus aureus assessed as reduction in bacterial growth incubated for 24 hrs by broth microdilution method; assay type: functional
[5] = tested on: Staphylococcus epidermidis; assay: Antibacterial activity against linezolid-resistant Staphylococcus epidermidis assessed as reduction in bacterial growth; assay type: functional
Staphylococcus aureus [6] = assay: Antibacterial activity against Linezolid-resistant Staphylococcus aureus assessed as reduction in bacterial growth; assay type: functional
[7] = tested on: Staphylococcus epidermidis; assay: Antibacterial activity against Methicillin-resistant Staphylococcus epidermidis assessed as bacterial growth inhibition; assay type: functional
Staphylococcus aureus [8] = assay: Antibacterial activity against Staphylococcus aureus assessed as reduction in microbial growth by CLSI based broth microdilution method; assay type: functional
Staphylococcus aureus [9] = assay: Antibacterial activity against methicillin-resistant Staphylococcus aureus assessed as reduction in microbial growth by CLSI based broth microdilution method; assay type: functional
[10] = tested on: Staphylococcus epidermidis; assay: Antibacterial activity against Staphylococcus epidermidis assessed as reduction in microbial growth after 24 hrs by CLSI based microdilution method; assay type: functional
L02 = assay: Antiproliferative activity against human L02 cells assessed as inhibition of cell growth incubated for 24 hrs by MTT assay; assay type: functional, cell-based; settings: L02, 24 h
MGC-803 = assay: Antiproliferative activity against human MGC-803 cells assessed as reduction in cell growth by MTT assay; assay type: functional, cell-based
SK-OV-3 = assay: Antiproliferative activity against human SK-OV-3 cells assessed as reduction in cell viability incubated for 24 hrs by CCK8 assay; assay type: functional, cell-based; settings: SK-OV-3, 24 h
NCI-H460 = assay: Antiproliferative activity against human NCI-H460 cells assessed as inhibition of cell growth by MTT assay; assay type: functional, cell-based

NCc1ncc(-c2ccc(N3C[C@H](CO)OC3=O)cc2F)cc1O
MIC (Escherichia coli [1]): 32 µg/mL
MIC (Escherichia coli [2]): 32 µg/mL (≈ 96 µM)
MIC (Escherichia coli [3]): 51 µg/mL
MIC (Staphylococcus aureus [4]): 20 µg/mL (≈ 60 µM)

NCc1cc(F)c(-c2ccc(N3C[C@H](CO)OC3=O)cc2F)cc1O
MIC (Escherichia coli [1]): 32 µg/mL
MIC (Escherichia coli [2]): 64 µg/mL (≈ 183 µM)
MIC (Escherichia coli [3]): 64 µg/mL
MIC (Staphylococcus aureus [4]): 32 µg/mL (≈ 91.3 µM)

NCc1ccc(-c2ccc(N3C[C@H](CO)OC3=O)cc2F)cc1O
MIC (Escherichia coli [1]): 32 µg/mL
MIC (Escherichia coli [2]): 8 µg/mL (≈ 24.1 µM)
MIC (Escherichia coli [3]): 84 µg/mL
MIC (Staphylococcus aureus [4]): 2.8 µg/mL (≈ 8.43 µM)

O=C1O[C@@H](CO)CN1c1ccc(-c2ccc([N+](=O)[O-])c(O)c2)c(F)c1
MIC (Escherichia coli [1]): 64 µg/mL
MIC (Escherichia coli [2]): 64 µg/mL (≈ 184 µM)
MIC (Escherichia coli [3]): 64 µg/mL
MIC (Staphylococcus aureus [4]): 0.5 µg/mL (≈ 1.44 µM)

CC(=O)NC[C@H]1CN(c2ccc(-c3ccc4c(c3)CC3(C(=O)NC(=O)NC3=O)C3CCCCN43)c(F)c2)C(=O)O1 (some centres not stated)
MIC [5]: > 32 µg/mL
MIC (Staphylococcus aureus [6]): 16 µg/mL (≈ 29.1 µM)
MIC [7]: < 1 µg/mL
MIC (Staphylococcus aureus [8]): 2 µg/mL
MIC (Staphylococcus aureus [9]): < 1 µg/mL
MIC [10]: 2 µg/mL

COC(=O)NC[C@H]1CN(c2ccc(-c3ccc4c(c3)CC3(C(=O)NC(=O)NC3=O)C3CCCN43)c(F)c2)C(=O)O1 (some centres not stated)
MIC [5]: 32 µg/mL (≈ 58 µM)
MIC (Staphylococcus aureus [6]): 32 µg/mL (≈ 58 µM)
MIC [7]: 2 µg/mL (≈ 3.63 µM)
MIC (Staphylococcus aureus [8]): 2 µg/mL
MIC (Staphylococcus aureus [9]): 2 µg/mL
MIC [10]: 2 µg/mL

COC(=O)NC[C@H]1CN(c2ccc(-c3ccc4c(c3)CC3(C(=O)NC(=O)NC3=O)C3COCCN43)c(F)c2)C(=O)O1 (some centres not stated)
MIC [5]: 32 µg/mL (≈ 56.4 µM)
MIC (Staphylococcus aureus [6]): > 32 µg/mL
MIC [7]: 2 µg/mL (≈ 3.52 µM)
MIC (Staphylococcus aureus [8]): 4 µg/mL
MIC (Staphylococcus aureus [9]): 4 µg/mL
MIC [10]: 4 µg/mL

CC(=O)NC[C@H]1CN(c2ccc(-c3ccc4c(c3)CC3(C(=O)NC(=O)NC3=O)C3CCCN43)c(F)c2)C(=O)O1 (some centres not stated)
MIC [5]: 32 µg/mL (≈ 59.8 µM)
MIC (Staphylococcus aureus [6]): 16 µg/mL (≈ 29.9 µM)
MIC [7]: < 1 µg/mL
MIC (Staphylococcus aureus [8]): 2 µg/mL
MIC (Staphylococcus aureus [9]): 2 µg/mL
MIC [10]: 2 µg/mL

CC(=O)NC[C@H]1CN(c2ccc(-c3ccc4c(c3)CC3(C(=O)NC(=O)NC3=O)C3COCCN43)c(F)c2)C(=O)O1 (some centres not stated)
MIC [5]: 32 µg/mL (≈ 58 µM)
MIC (Staphylococcus aureus [6]): 32 µg/mL (≈ 58 µM)
MIC [7]: 2 µg/mL (≈ 3.63 µM)
MIC (Staphylococcus aureus [8]): 4 µg/mL
MIC (Staphylococcus aureus [9]): 4 µg/mL
MIC [10]: 4 µg/mL

O=C1O[C@@H](CO)CN1c1ccc(-c2ccccc2)c(F)c1
MIC (Escherichia coli [1]): 16 µg/mL
MIC (Escherichia coli [2]): 16 µg/mL (≈ 55.7 µM)
MIC (Escherichia coli [3]): > 64 µg/mL
MIC (Staphylococcus aureus [4]): 1 µg/mL (≈ 3.48 µM)

Cc1ccccc1NCC(O)COC(=O)[C@]1(C)CCC[C@]2(C)c3ccc(C(C)C)cc3CCC12 (some centres not stated)
IC50 (L02): ≥ 28.3 µM
IC50 (MGC-803): 7.1 µM
IC50 (SK-OV-3): ≥ 14.9 µM
IC50 (NCI-H460): ≥ 15.6 µM

CC(C)c1ccc2c(c1)CCC1[C@](C)(C(=O)OCC(O)CNc3ccc(Br)cc3)CCC[C@]21C (some centres not stated)
IC50 (L02): ≥ 28.3 µM
IC50 (MGC-803): 7.1 µM
IC50 (SK-OV-3): ≥ 14.9 µM
IC50 (NCI-H460): ≥ 15.6 µM

CC(C)c1ccc2c(c1)CCC1[C@](C)(C(=O)OCC(O)CNc3cccc(Cl)c3)CCC[C@]21C (some centres not stated)
IC50 (L02): ≥ 28.3 µM
IC50 (MGC-803): 7.1 µM
IC50 (SK-OV-3): ≥ 14.9 µM
IC50 (NCI-H460): ≥ 15.6 µM

CC(C)c1ccc2c(c1)CCC1[C@](C)(C(=O)OCC3CN(c4ccccc4F)C(=O)O3)CCC[C@]21C (some centres not stated)
IC50 (L02): ≥ 26.4 µM
IC50 (MGC-803): 3.82 µM
IC50 (SK-OV-3): ≥ 4.1 µM
IC50 (NCI-H460): ≥ 4.3 µM

C#Cc1cccc(NCC(O)COC(=O)[C@]2(C)CCC[C@]3(C)c4ccc(C(C)C)cc4CCC23)c1 (some centres not stated)
IC50 (L02): ≥ 28.3 µM
IC50 (MGC-803): 7.1 µM
IC50 (SK-OV-3): ≥ 14.9 µM
IC50 (NCI-H460): ≥ 15.6 µM

COc1cccc(N2CC(COC(=O)[C@]3(C)CCC[C@]4(C)c5ccc(C(C)C)cc5CCC34)OC2=O)c1 (some centres not stated)
IC50 (L02): ≥ 26.4 µM
IC50 (MGC-803): 3.82 µM
IC50 (SK-OV-3): ≥ 4.1 µM
IC50 (NCI-H460): ≥ 4.3 µM

CC(C)c1ccc2c(c1)CCC1[C@](C)(C(=O)OCC3CN(c4ccc(Cl)cc4)C(=O)O3)CCC[C@]21C (some centres not stated)
IC50 (L02): ≥ 26.4 µM
IC50 (MGC-803): 3.82 µM
IC50 (SK-OV-3): ≥ 4.1 µM
IC50 (NCI-H460): ≥ 4.3 µM

COc1ccccc1N1CC(COC(=O)[C@]2(C)CCC[C@]3(C)c4ccc(C(C)C)cc4CCC23)OC1=O (some centres not stated)
IC50 (L02): ≥ 26.4 µM
IC50 (MGC-803): 3.82 µM
IC50 (SK-OV-3): ≥ 4.1 µM
IC50 (NCI-H460): ≥ 4.3 µM

O=Cc1ccc(-c2ccc(N3C[C@H](CO)OC3=O)cc2F)cc1O
MIC (Escherichia coli [1]): 8 µg/mL
MIC (Escherichia coli [2]): 16 µg/mL (≈ 48.3 µM)
MIC (Escherichia coli [3]): 128 µg/mL
MIC (Staphylococcus aureus [4]): < 0.5 µg/mL

Cc1ccc(NCC(O)COC(=O)[C@]2(C)CCC[C@]3(C)c4ccc(C(C)C)cc4CCC23)cc1 (some centres not stated)
IC50 (L02): ≥ 28.3 µM
IC50 (MGC-803): 7.1 µM
IC50 (SK-OV-3): ≥ 14.9 µM
IC50 (NCI-H460): ≥ 15.6 µM

CC(C)c1ccc2c(c1)CCC1[C@](C)(C(=O)OCC3CN(c4cccc(Cl)c4)C(=O)O3)CCC[C@]21C (some centres not stated)
IC50 (L02): ≥ 26.4 µM
IC50 (MGC-803): 3.82 µM
IC50 (SK-OV-3): ≥ 4.1 µM
IC50 (NCI-H460): ≥ 4.3 µM

CC(C)c1ccc2c(c1)CCC1[C@](C)(C(=O)OCC(O)CNc3ccc(F)cc3)CCC[C@]21C (some centres not stated)
IC50 (L02): ≥ 28.3 µM
IC50 (MGC-803): 7.1 µM
IC50 (SK-OV-3): ≥ 14.9 µM
IC50 (NCI-H460): ≥ 15.6 µM

CC(C)c1ccc2c(c1)CCC1[C@](C)(C(=O)OCC3CN(c4ccc(F)cc4)C(=O)O3)CCC[C@]21C (some centres not stated)
IC50 (L02): ≥ 26.4 µM
IC50 (MGC-803): 3.82 µM
IC50 (SK-OV-3): ≥ 4.1 µM
IC50 (NCI-H460): ≥ 4.3 µM
